For one assay, the system named is CFTR. Conditions: patients with CF (Wilschanski et al., 2003); cited from earlier work.
The target in another assay is T1, F508del-CFTR (Homo sapiens, UniProt P13569, DEL508-508).
T1 construct: host or cells: CF patients
The following applies: patients having F508del-CFTR class II mutation (Flume et al., 2012); cited from earlier work.

Assay [1] concerns the target T2, HEK293 wild type CFTR membrane fractions (Homo sapiens, UniProt P13569).
T2 construct: expressed in transfected cells; host or cells: HEK293 (membrane fractions)
Briefly: Back-Scattering Interferometry (Molecular Sensing) binding to CFTR membrane fractions. The method, then:
TruBind™ Back-Scattering Interferometry (BSI) (Molecular Sensing GmbH) can be used to determine binding constants of different compounds to CFTR-expressing cells.
HEK293 wild type CFTR and HEK293 control membrane fractions are used as 100 μg (total protein amount) aliquots in 50 mM Tris-HCl pH 7.5, 1 mM EDTA, 10% Glycerol+PIC and stored at −80° C.
The buffer used for the assays is 50 mM Tris-HCl pH 7.5, 1 mM EDTA with 1.2% DMSO. The refractive index of the assay buffer and the compound are matched and then a 2x serial dilution is done in polypropylene dilution reservoirs.
A thawed aliquot of HEK293.CFTRwt as well as a thawed aliquot of HEK293 control membrane fractions is diluted to 10 mL in 50 mM Tris-HCl pH 7.5, 1 mM EDTA with 1.2% DMSO. The refractive index of the assay buffer and the two membrane fractions are matched by adding water to the membrane fractions.
Compound and target are mixed 1:1 in 96-well PCR microtiter plates to a final volume of 150 μL and heat sealed with foil. The assays are allowed to incubate at room temperature for 4 hours before being run on the BSI instrument. Wells are pierced individually prior to sample injection and measurement of BSI signal (each well is analyzed in quadruplicates). […]
The final data for the difference curve is exported to Graphpad Prism® and analyzed using a one-site binding equation to determine a Kd for the assay. […]

T2 sequence (P13569 whole entry): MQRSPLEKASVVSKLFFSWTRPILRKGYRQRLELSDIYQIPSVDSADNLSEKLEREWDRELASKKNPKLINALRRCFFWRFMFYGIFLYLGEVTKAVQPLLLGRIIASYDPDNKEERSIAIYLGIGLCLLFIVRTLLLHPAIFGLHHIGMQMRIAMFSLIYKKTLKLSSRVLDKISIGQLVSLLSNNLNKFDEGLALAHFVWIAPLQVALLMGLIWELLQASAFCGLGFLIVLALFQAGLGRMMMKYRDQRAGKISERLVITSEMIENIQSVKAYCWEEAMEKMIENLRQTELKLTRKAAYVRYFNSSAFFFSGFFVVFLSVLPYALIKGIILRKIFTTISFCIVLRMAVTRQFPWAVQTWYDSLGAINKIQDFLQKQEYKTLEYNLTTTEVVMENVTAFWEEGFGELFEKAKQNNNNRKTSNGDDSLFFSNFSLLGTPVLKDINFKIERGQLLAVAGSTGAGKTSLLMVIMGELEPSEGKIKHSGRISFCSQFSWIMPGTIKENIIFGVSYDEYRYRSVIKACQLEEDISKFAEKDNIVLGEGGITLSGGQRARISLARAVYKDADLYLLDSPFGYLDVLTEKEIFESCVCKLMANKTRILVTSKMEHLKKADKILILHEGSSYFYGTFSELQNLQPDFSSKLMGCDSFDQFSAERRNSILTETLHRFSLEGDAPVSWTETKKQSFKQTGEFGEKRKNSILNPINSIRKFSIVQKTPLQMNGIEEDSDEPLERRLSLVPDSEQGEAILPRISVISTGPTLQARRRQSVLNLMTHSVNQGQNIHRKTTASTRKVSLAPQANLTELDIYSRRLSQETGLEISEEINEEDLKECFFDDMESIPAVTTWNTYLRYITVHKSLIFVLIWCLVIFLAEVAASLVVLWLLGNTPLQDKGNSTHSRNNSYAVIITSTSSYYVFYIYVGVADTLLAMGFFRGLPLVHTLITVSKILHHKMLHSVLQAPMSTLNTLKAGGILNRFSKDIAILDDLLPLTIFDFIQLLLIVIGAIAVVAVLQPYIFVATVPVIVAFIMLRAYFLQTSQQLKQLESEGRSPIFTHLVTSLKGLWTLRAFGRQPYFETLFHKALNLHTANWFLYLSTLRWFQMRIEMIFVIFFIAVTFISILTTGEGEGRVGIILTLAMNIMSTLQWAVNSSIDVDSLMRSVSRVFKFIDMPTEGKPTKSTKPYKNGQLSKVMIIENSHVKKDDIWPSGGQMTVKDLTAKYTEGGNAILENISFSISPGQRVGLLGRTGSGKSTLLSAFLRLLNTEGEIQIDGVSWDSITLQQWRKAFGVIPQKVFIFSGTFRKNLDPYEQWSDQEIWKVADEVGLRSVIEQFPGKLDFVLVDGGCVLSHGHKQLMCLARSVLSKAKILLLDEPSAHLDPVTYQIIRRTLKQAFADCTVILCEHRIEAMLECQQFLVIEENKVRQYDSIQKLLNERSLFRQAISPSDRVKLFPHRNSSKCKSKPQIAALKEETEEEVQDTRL
T1 sequence (P13569 with tags, fused parts or gaps DEL508-508): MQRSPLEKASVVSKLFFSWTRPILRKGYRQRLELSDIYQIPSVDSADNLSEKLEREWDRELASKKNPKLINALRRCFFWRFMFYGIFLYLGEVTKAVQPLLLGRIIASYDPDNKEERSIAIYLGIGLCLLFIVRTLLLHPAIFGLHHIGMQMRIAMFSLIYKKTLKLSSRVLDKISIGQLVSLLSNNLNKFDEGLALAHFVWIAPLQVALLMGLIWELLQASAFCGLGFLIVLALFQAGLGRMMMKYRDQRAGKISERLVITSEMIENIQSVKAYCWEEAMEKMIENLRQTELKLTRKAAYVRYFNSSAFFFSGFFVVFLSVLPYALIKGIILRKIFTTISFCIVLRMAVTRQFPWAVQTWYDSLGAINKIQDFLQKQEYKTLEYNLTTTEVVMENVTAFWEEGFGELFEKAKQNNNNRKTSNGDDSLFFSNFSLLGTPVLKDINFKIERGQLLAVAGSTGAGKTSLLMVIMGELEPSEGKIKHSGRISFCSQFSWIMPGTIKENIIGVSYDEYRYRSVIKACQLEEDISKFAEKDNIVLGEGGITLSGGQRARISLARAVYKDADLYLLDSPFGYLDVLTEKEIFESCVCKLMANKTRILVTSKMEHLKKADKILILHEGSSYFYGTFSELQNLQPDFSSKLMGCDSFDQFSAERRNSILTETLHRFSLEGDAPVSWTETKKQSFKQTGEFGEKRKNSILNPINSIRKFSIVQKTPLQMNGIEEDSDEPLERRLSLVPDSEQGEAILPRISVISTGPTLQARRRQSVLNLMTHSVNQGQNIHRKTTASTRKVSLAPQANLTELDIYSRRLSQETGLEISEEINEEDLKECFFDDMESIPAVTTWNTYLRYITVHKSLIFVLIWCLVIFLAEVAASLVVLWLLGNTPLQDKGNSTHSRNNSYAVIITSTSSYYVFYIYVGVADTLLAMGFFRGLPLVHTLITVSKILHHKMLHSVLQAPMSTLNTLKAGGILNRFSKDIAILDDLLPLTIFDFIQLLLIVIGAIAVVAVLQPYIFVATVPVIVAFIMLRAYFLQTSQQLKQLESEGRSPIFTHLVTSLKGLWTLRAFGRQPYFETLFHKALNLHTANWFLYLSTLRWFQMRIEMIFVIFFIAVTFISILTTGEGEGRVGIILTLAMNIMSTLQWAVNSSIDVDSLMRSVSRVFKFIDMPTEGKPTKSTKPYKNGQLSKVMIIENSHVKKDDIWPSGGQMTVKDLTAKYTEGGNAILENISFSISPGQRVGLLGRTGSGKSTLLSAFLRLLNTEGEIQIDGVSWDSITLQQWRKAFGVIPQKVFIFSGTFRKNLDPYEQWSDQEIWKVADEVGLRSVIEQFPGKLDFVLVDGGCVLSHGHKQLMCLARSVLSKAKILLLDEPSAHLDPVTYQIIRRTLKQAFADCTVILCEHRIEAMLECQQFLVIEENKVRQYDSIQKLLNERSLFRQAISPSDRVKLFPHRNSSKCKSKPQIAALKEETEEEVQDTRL

On to gentamicin, for which the “change in Nasal Potential Difference (NPD) values” in the assay with CFTR is “small changes”. As for `CC(C)(C)c1cc(C(C)(C)C)c(NC(=O)c2c[nH]c3ccccc3c2=O)cc1O` [VX-770], the “therapeutic efficacy in patients” value on F508del-CFTR was “no significant therapeutic efficacy”.

The Kd is the constant that tells how readily two partners part at equilibrium. For the molecule `COc1ccc2c(c1)O[C@@H](c1ccc(C(=O)O)cc1)C[C@H]2NC(=O)C1(c2ccc3c(c2)OC(F)(F)O3)CC1` [C1], the Kd in assay [1] (binding to wild-type CFTR membrane fractions, control membrane fractions subtracted, one-site binding fit) worked out at 94.7 ± 26.5 nM. In addition, in assay [1] (comment on Table 1), the “binding affinity to the membrane fraction of CFTR (in words)” value was “binding affinity similar to the known correctors acting on CFTR”.

(Values after patent publication US20170100374A1, “POTENTIATOR-CORRECTOR COMBINATIONS USEFUL IN THE TREATMENT OF CYSTIC FIBROSIS” (AbbVie S.à.r.l., priority 2015, published 2017).)
